Patent US4264734A, “Process for producing antibiotic desacetyl 890A10” (Merck & Co., Inc., priority 1979, dated 1981)

Tests used:
[1] = test system: gram-positive and gram-negative bacteria; assay: Antibacterial activity (general statement); format: cell-based; details: no test values printed
[2] = test system: Staphylococcus aureus ATCC 6538P; assay: Electrophoresis followed by bioactivity on Staphylococcus aureus assay plate; format: cell-based; details: after incubation of 890A10 with cell sonicate and electrophoresis at pH 7.1; 37° C., 18 hours
Procedure: The flasks are shaken at 28° C. on a 220 rpm (2" throw) shaker for 4 days. A 30 ml. portion from each flask is centrifuged for 15 minutes at 8,000 rpm. The supernatant portion is removed, leaving only enough to form a thick suspension of cells and media solids. Half of the suspension is subjected to ultrasonic disruption using a Branson Instrument Model LS-75 Sonifier with a 1/2 inch probe. The input power is set at position No. 4, and four successive 15 second cycles of irradiation are used, while chilling the suspension in ice water during and between disruption. To test for the presence of N-acetyl-890A10 amidohydrolase activity, a 10-μl. portion of the sonicate is mixed with 25 μl. of an 890A10 solution containing 500 μg. per ml. Controls containing antibiotic and buffer alone; and sonicated cells and buffer without antibiotic are also run. After incubation overnight at 28° C., 10 μl. quantities are applied to Schleicher and Schuell No. 2043-B paper. Using 0.03 M potassium phosphate buffer pH 7.1, a voltage gradient of 50 volts/cm. is applied for 30 minutes. The paper is placed on a Staphylococcus aureus ATCC 6538P plate and incubated at 37° C. for 18 hours. […]
The flask is shaken at 28° C. on a 220 rpm (2-inch throw) shaker for four days. […] After incubation overnight at 28° C., 10-μl. quantities are applied to Schleicher & Schuell No. 2043-B paper. […]

[3] = test system: Vibrio percolans ATCC 8461; assay: Assay for 890 Assay Units, agar plate disc-diffusion method, cephaloridine as standard; format: cell-based; details: 25 mm. zone of inhibition on a 5 ml. plate
Procedure: II. Assay Procedure for Determining "890 Assay Units" A conventional agar plate disc-diffusion method is employed using Vibrio percolans ATCC 8461 as tester organism. Cephaloridine is employed as a standard. Plates containing Vibrio percolans ATCC 8461 are prepared as follows. A culture of Vibrio percolans ATCC 8461 is incubated in nutrient broth-yeast extract overnight on a rotary shaker at 28° C. and then diluted to a density of 60% transmittance at 660 nm. A 33.2 ml. portion of this diluted culture is added to 1 liter of a medium composed of nutrient agar plus 0.2% yeast extract maintained at 46° C. The inoculated agar-containing medium is poured into 100×15 mm. plastic-petri dishes, 10 ml. per dish, chilled, and maintained at 2°-4° C. for up to 5 days before use. The concentration of cephaloridine which is equivalent to 1 unit/ml. of 890A1 is determined by assay on plates prepared as above, but containing 5 ml. of inoculated medium per plate, as follows. Four concentrations of cephaloridine constitute the standard--3.12, 6.25, 12.5 and 25 mcg per ml. with the 12.5 mcg per ml. as a reference solution. The zone diameters on a 5 ml. plate for the standard are as follows: A unit is defined as the amount of antibiotic per ml. producing a 25 mm. zone of inhibition on a 5 ml. plate as described in section I above. […]

[4] = Stability under acidic conditions in aqueous solution; format: physicochemical

CC(OS(=O)(=O)O)C1C(=O)N2C(C(=O)O)=C(SCCN)CC12 (centres unmarked) [desacetyl 890A10]
antibacterial activity [1]: active against various gram-positive and gram-negative bacteria | bioactive spot on Staphylococcus aureus plate [2]: bioactive

O=C(Cc1cccs1)N[C@@H]1C(=O)N2C(C(=O)[O-])=C(C[n+]3ccccc3)CS[C@H]12 [cephaloridine]
concentration considered equivalent to 1 unit of 890A1 per ml [3]: 12.5 mcg per ml.

CC(=O)NCCSC1=C(C(=O)O)N2C(=O)C(C(C)OS(=O)(=O)O)C2C1 (centres unmarked) [890A10]
stability under acidic conditions [4]: unstable | bioactive spot on Staphylococcus aureus plate [2]: bioactive
